Earlier results as cited in patent US20110158922A1, “Skin Care Compositions and Method of Use Thereof” (priority 2008, published 2011).
No end group written: not given here. *: point of attachment. Palmitoyl = CCCCCCCCCCCCCCCC(=O)*

Columns and labels:
[1] = tested on: collagen glycation; settings: in vitro
[2] = tested on: skin cell energy production; settings: topical application
[3] = tested on: synthesis of GAGs; settings: in-vitro study
[4] = tested on: T-T dimmers in DNA, DNA repair, cell viability following UV exposure; settings: in vitro

## COc1ccc([C@@H]2CC(=O)c3c(O)cc(O[C@@H]4O[C@H](CO[C@@H]5O[C@@H](C)[C@H](O)[C@@H](O)[C@H]5O)[C@@H](O)[C@H](O)[C@H]4O)cc3O2)cc1O [Hesperidin flavonoids, hesperidin]
[1]
  collagen glycation: inhibit collagen glycation in vitro

## CN(CC(=O)O)C(=N)N [creatine]
[2]
  skin cell energy production: substantial improvement in skin cell energy production

## Palmitoyl-Lysysl-Threonyl-Threonyl-Lysyl-Serine (Palmitoyl-KTTKS) [Palmitoyl pentapeptide-4, peptide derived from a collagen precursor]
[3]
  synthesis of GAGs: increase synthesis of GAGs

## ethylbisiminomethylguaiacol manganese chloride
[4]
  DNA repair: stimulates DNA repair
  cell viability following UV exposure: increasing cell viability following UV exposure
[4]; UV exposure
  formation of T-T dimmers in DNA: reduces the formation of T-T dimmers in DNA
